The subject of series [1] is healthy donor PBMCs. In words: Cell viability of healthy donor PBMCs on antagonist treatment (data not shown). The series is classed as cell-based, human. On the procedure: Supplementary methods and results
Annexin V viability analysis
Cells were washed with Annexin V binding buffer (BioLegend) then incubated with Alexa Fluor 647 – conjugated Annexin V (BioLegend) at room temperature for 15 minutes. For A2AAR and A2BAR expression profiling, cells were washed with BD Perm/Wash then incubated with BD CytoFix/CytoPerm at 4°C for 20 minutes. The cells were then washed and stained with PE-conjugated A2AAR mouse antibody (Clone 7F6-G5-A2; Santa Cruz Biotechnology, sc-32261 PE) at room temperature for 30 minutes. After washing twice to remove most A2AAR antibody possible, goat A2BAR primary antibody (Clone PA5-18422; Thermo Fisher Scientific) was incubated at 4°C overnight. The cells were subsequently washed and stained with Alexa Fluor 488-conjugated anti-goat secondary antibody (Thermo Fisher Scientific) at room temperature for 1 hour. The cells were then washed with FC buffer twice before acquiring on NovoCyte. A2AAR and A2BAR fluorescence minus one (FMO) staining were also prepared. For differential expression of ADO ectonucleotidases, day five patient-derived sarcoma spheroids were digested and stained for CD45, CD73 and CD39 using the same procedures as cell surface staining (Supplementary Table 1).
Public database bioinformatic analysis […]

The target in series [2] is T1, human A2BAR (Homo sapiens, UniProt P29275).
T1 construct: expressed in transfected cells; host or cells: HEK-293
T1 sequence (P29275 1-332): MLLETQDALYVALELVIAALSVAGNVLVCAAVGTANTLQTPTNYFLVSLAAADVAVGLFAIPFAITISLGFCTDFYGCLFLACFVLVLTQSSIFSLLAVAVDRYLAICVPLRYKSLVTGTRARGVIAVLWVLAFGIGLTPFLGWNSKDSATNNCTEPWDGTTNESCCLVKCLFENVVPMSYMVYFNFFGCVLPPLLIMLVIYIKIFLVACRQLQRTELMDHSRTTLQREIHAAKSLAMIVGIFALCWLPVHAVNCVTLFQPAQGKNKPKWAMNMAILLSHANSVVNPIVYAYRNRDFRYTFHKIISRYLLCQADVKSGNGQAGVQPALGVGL
In words: Radioligand binding, human A2BAR ([3H]DPCPX, transfected HEK-293 cells). As to conditions: displacement of [3H]DPCPX, human HEK-293 cells, n=3, racemic mixtures; read-out: Ki hA2B. The procedure: The affinity and selectivity profiles of the ligands obtained was studied in vitro, radioligand binding assays, at the four human specific ARs subtypes, using experimental protocols previously described.[28–30] All ligands were prepared and tested as racemic mixtures. […] Non-specific binding was determined in the presence of R-PIA 10 µM for A1AR, NECA 50 µM for A2AAR, NECA 400 μΜ for A2BAR and R-PIA 100 μΜ for A3AR.
On the technique in general: In a radioligand displacement assay an active substance lowers the binding of a labelled ligand.

The subject of series [3] is healthy donor T cells in MPNST patient-derived sarcoma spheroid. In words: Proliferation assay with CD73-expressing patient-derived sarcoma (MPNST) spheroid. As to conditions: antagonist 12 µM, 3 days, endogenous adenosine, n=5 healthy donors. It is filed as cell-based, human. On the procedure:
A malignant peripheral nerve sheath tumor (MPNST) patient-derived sarcoma cell line was used to grow spheroid by seeding 1×10^4 cells per well in a 96-well ultra-low attachment plate (Thermo Fisher Scientific) with DMEM-F12 media containing 20% FBS and 1% PS for 5 days. 1×10^5 CSFE-labeled healthy PBMCs, ratio of 10:1, were added to the CD73 expressing, adenosine-producing spheroid at day five. Similar to the proliferation assay with exogenous ADO, CD3/CD28 beads at 1:4 ratio and IL-2 at 100 IU/mL were added. A2BAR antagonism treatment at 12 μM was added at the same day.
Figure 5 Rescue of lymphocyte proliferation in sarcoma spheroids by A2BAR antagonism. Relative proliferation of: (A) CD45RA- CD4 T cells, (B) CD45RA+CD4 T cells, (C) CD45RA- CD8 T cells and (D) CD45RA+ CD8 T cells after antagonist 12 µM treatment for 3 days in MPNST patient-derived sarcoma spheroid. (n=5 healthy donors) Box plots with minimum, first quartile, median, third quartile, and maximum are presented. Unpaired and non-parametric statistical analysis—Mann-Whitney test was performed against untreated control with *p<0.05, **p<0.01, ***p<0.001, and ****p<0.0001. (E) Representative CSFE dilution of CD45RA+ CD8 T cells. CD45RA expression differentiates naïve and effector T cells from central and effector memory T cells. MPNST, malignant peripheral nerve sheath tumors; UPS, undifferentiated pleomorphic sarcoma.

A word on the Ki: it is the equilibrium dissociation constant of an inhibitor or competing ligand from its target.

Consider `CC1=C(C(=O)OC(C)C)C(c2ccco2)n2c(nc3ccccc32)N1` (stereo not drawn) [ISAM-140, isopropyl 4-(furan-2-yl)−2-methyl-1,4-dihydrobenzo[4 5] imidazo[1,2 a]pyrimidine-3-carboxylate], for which the “Toxicity / cell viability” value in series [1] is “non-toxic and even improved cell viability”. In the case of `CC1=C(C(=O)OC(C)C)C(c2ccco2)n2c(nc3ccccc32)N1Cc1ccccc1F` (stereo not drawn) [ISAM-R56A], the Ki in series [2] was 1.5 nM. In addition, the “Rescue of naïve and effector (CD45RA+) CD8 T cell proliferation in adenosine-producing sarcoma spheroids” value in series [3] is “significantly rescued”.

The values are drawn from article PMC9115112, “A2B adenosine receptor antagonists rescue lymphocyte activity in adenosine-producing patient-derived cancer models” (Journal for Immunotherapy of Cancer, 2022).
